Test results as given in patent US11103526B2, “Methods for treatment using small molecule potassium-sparing diuretics and natriuretics” (University of Pittsburgh—Of the Commonwealth System of …, priority 2016, dated 2021).

What was measured:
[1] = system: obese Zucker Diabetic Sprague Dawley rats (ZDSD); assay: Long-term MABP in obese Zucker Diabetic Sprague Dawley rats; assay type: in vivo; conditions: 10 mg/kg/day in drinking water; also with 1% salt and diabetogenic diet
Excerpt: This example describes the long-term effects of 8-aminoguanine (FIG. 14A) and 8-aminoguanosine (FIG. 14B) on mean arterial blood pressure (MABP) in obese Zucker Diabetic Sprague Dawley rats (ZDSD). Obese ZDSD are a recently developed model (developed by PreClinOmics) of metabolic syndrome that have a mild elevation of MABP and have dyslipidemia, diabetes, and obesity. All animals were instrumented for long-term measurement of MABP by radiotelemetry as previously described (Jackson E K et al., Hypertension, 65:238-249, 2015). Group 1 ZDSD received only normal drinking water, whereas Group 2 received normal drinking water for 7 days and then were provided drinking water containing 8-aminoguanine or 8-aminoguanosine (10 mg/kg/day) for the remainder of the study. The experiment was divided into three phases (indicated by the boxes). During phase 1, no other treatments were provided. During phase 2, all animals received 1% salt (NaCl) in their drinking water. During phase 3, all animals were provided (in addition to 1% salt in the drinking water) a diabetogenic diet to worsen diabetes. The numbers in each box are the average MABP in Group 2 versus Group 1 during the time period indicated by the box. P-values comparing Group 2 versus Group 1 during each phase of the experiment are also provided.

[2] = system: DOCA-salt hypertension; assay: DOCA-salt hypertension, long-term MABP by radiotelemetry; assay type: in vivo, rats; conditions: for development of DOCA-salt hypertension / basal MABP: 5 mg/kg/day; for development of DOCA-salt hypertension: initiated 13 days before inducing DOCA-salt hypertension; for basal MABP: pretreatment 13 days before inducing DOCA-salt hypertension
Experimental: This example describes the effects of 8-aminoguanosine and 8-aminoguanine on DOCA-salt hypertension. Rats were instrumented for long-term and continuous measurement of arterial blood pressure by radiotelemetry as recently described (Jackson E K et al., Hypertension, 65:238-249, 2015). After at least 20 days of from the time of radiotransmitter implantation, hypertension was induced in the animals by removing one kidney, subcutaneously administering deoxycorticosterone acetate (30 mg/kg twice weekly), and providing 1% NaCl as drinking water (i.e., DOCA-salt hypertension). At this time, some animals were also randomized to receive either drinking water without 8-aminoguanosine or drinking water containing 8-aminoguanosine (10 mg/kg/day). In two other experiments, 8-aminoguanosine ([…]) or 8-aminoguanine (5 mg/kg/day) was administered 13 days before DOCA-salt hypertension was induced.
Results. Three studies were conducted to assess the effects of 8-aminoguanosine and 8-aminoguanine on DOCA-salt hypertension. In one study, DOCA-salt hypertension was induced at the same time that treatment with 8-aminoguanosine (10 mg/kg/day) was initiated. In two other studies, treatment with 8-aminoguanosine (5 mg/kg/day) or 8-aminoguanine (5 mg/kg/day) was initiated 13 days before inducing DOCA-salt hypertension. Treatments were maintained for the duration of the studies, and the MABP was continuously monitored by radiotelemetry. As shown in FIGS. 10A-10C, 8-aminoguanosine at 10 mg/kg/day prevented DOCA-salt hypertension.

[3] = system: Dahl salt-sensitive rats (Dahl SS); assay: Survival of Dahl SS on high-salt diet; assay type: in vivo; conditions: for median survival time: 10 mg/kg/day beginning 23 days before high-salt (8% NaCl) diet, control 70 days; for hemiparalysis before death / increase in lifespan: 10 mg/kg/day; for hemiparalysis before death: high-salt diet; for increase in lifespan: versus control group on high-salt diet
Experimental: This example describes the long-term effects of 8-aminoguanine (FIG. 15A) and 8-aminoguanosine (FIG. 15B) on survival in Dahl salt-sensitive rats (Dahl SS). Dahl SS are a well-established model of salt-sensitive hypertension. The control group of Dahl SS received only normal drinking water; whereas the treatment group received 8-aminoguanine or 8-aminoguanosine (10 mg/kg/day) beginning 23 days before starting a high-salt (8% NaCl) diet and continuing until all animals expired. The control group was also provided a high-salt diet at the same time as the treated group. FIGS. 15A-15B show survival curves for the control group versus the 8-aminoguanine-treated group or 8-aminoguanosine-treated group.

[4] = system: Dahl salt-sensitive rats (Dahl SS); assay: Long-term MABP in Dahl salt-sensitive rats; assay type: in vivo; conditions: 10 mg/kg/day in drinking water; 8% NaCl diet
Excerpt: This example describes the long-term effects of 8-aminoguanine (FIG. 11A) and 8-aminoguanosine (FIG. 11B) on mean arterial blood pressure (MABP) in Dahl salt-sensitive rats (Dahl SS). Dahl SS are a well-established model of salt-sensitive hypertension. All animals were instrumented for long-term measurement of MABP by radiotelemetry as previously described (Jackson E K et al., Hypertension, 65:238-249, 2015). Group 1 Dahl SS received only normal drinking water, whereas Group 2 received normal drinking water for 7 days and then were provided drinking water containing either 8-aminoguanine or 8-aminoguanosine (10 mg/kg/day) for the remainder of the study. The experiment was divided into two phases (indicated by the boxes). During phase 1, all rats received a low-salt (0.3% NaCl) diet. During phase 2, all animals received a high-salt (8% NaCl) diet. The study was continued until all animals expired, so the sample size decreases with time. The blood pressures of the 8-aminoguanine- and 8-aminoguanosine-treated rats were obtainable for a longer period of time because they survived longer. […] Therefore, any stroke and survival benefit for 8-aminoguanosine cannot be attributed to changes in MABP. Why 8-aminoguaine, but not 8-aminoguanosine, lowers MABP in Dahl SS on a high-salt diet is currently unknown, but may be due to different pharmacokinetics of the compounds in this rat strain.

[5] = system: obese ZDSD (metabolic syndrome); assay: Glycated hemoglobin (HbA1C) in obese ZDSD at end of diabetogenic diet; assay type: in vivo, Zucker Diabetic Sprague Dawley rats; conditions: chronic treatment 10 mg/kg/day
Excerpt: This example describes the long-term effects of 8-aminoguanine on (FIG. 18) on glycated hemoglobin (HbA1C) levels in blood from rats with the metabolic syndrome (i.e., obese ZDSD) at the end of a diabetogenic diet. Obese ZDSD are a recently developed model (developed by PreClinOmics) of metabolic syndrome that have a mild elevation of MABP and have dyslipidemia, diabetes, and obesity.

Compound | MABP in metabolic syndrome (obese ZDSD) [1] | development of DOCA-salt hypertension [2] | basal MABP [2] | median survival time [3] [days] | hemiparalysis before death [3] | increase in lifespan [3] [%] | MABP in Dahl SS on a high-salt diet [4] | glycated hemoglobin (HbA1C) levels in blood [5] | DOCA-salt hypertension (MABP) ([2]; 10 mg/kg/day in drinking water, started when hypertension was induced)
Nc1nc2[nH]c(N)nc2c(=O)[nH]1 [8-aminoguanine, 8-Aminoguanine] | decrease MABP | markedly attenuated | did not affect | 108 | did not exhibit hemiparalysis | 54 | decreases MABP | dramatic anti-diabetic effect | 
Nc1nc2c(nc(N)n2[C@@H]2O[C@H](CO)[C@@H](O)[C@H]2O)c(=O)[nH]1 [8-aminoguanosine, 8-Aminoguanosine] | decrease MABP | markedly attenuated | did not affect | 108 | did not exhibit hemiparalysis | 54 | did not alter MABP | significantly lowered | prevented
